Test results reported in US20240343733A1, “COMPOUNDS FOR TARGETING DEGRADATION OF IRAK4 PROTEINS” (BIOGEN MA INC., priority 2021, published 2024).

Molecular target: T1, IRAK4 (Homo sapiens, UniProt Q9NWZ3)
T1 construct: 293Tcells expressing HiBiT-tagged IRAK4 were then added into 384-well plates
T1 sequence (Q9NWZ3 1-460): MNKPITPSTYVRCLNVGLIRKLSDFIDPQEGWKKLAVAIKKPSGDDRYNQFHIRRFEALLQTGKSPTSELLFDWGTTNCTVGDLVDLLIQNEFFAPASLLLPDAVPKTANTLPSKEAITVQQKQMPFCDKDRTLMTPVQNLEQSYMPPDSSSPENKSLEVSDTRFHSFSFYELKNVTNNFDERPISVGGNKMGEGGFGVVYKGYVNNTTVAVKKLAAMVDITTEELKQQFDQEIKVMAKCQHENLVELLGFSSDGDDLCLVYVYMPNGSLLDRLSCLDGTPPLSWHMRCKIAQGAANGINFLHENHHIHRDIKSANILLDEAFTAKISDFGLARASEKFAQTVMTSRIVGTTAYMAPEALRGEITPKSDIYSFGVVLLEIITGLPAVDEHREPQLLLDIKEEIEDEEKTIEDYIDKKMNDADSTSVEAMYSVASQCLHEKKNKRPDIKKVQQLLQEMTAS
Assay: IRAK4 Degradation Assay, HiBiT Method
Format: cell-based
Conditions: 293T cells expressing HiBiT-tagged IRAK4, 6 hours
Protocol: Assay 1. IRAK4 Degradation Assay, HiBiT Method
Selected compounds were tested in an IRAK4 degradation assay using the HiBiT Method.
Phenol red-free Dulbecco's modified Eagle medium (DMEM) and fetal bovine serum (FBS) were purchased from Gibco (Grand Island, NY, USA). The Nano-Glo® HiBiT Lytic Assay System was purchased from Promega (Madison, WI, USA). Cell culture flasks and 384-well microplates were acquired from VWR (Radnor, PA, USA). The 293Tcell line was engineered by knocking-in a HiBiT fusion tag into the C-terminal of the IRAK4 gene in 293T cells (Synthego, Redwood City, CA, USA).
IRAK4 degradation was measured via the quantification of luminescent signals using the Nano-Glo® HiBiT Lytic Assay kit. Test compounds were added to 384-well plates in duplicate using an 11-point half-log dilution series, with the highest dose set at […]. 293Tcells expressing HiBiT-tagged IRAK4 were then added into 384-well plates at a cell density of 10,000 cells per well. The plates were kept at 37° C. with 5% CO2 for 6 hours. Cells that were treated only with DMSO served as the negative control; wells that contained only assay media served as the background control. After the 6-hour incubation, Nano-Glo® HiBiT Lytic Assay reagents were added to the cells. Luminescence was acquired using an EnVision™ Multilabel Reader (PerkinElmer, Santa Clara, CA, USA).

`CC(C)Oc1cc2nc([C@H]3CC[C@H](CN4CCC(c5ccc(C6(C)CCC(=O)NC6=O)cc5)CC4)CC3)cn2cc1C(=O)Nc1cccc(C(F)F)n1` (stereo partly drawn) [Example 40, N-[6-(difluoromethyl)-2-pyridyl]-7-isopropoxy-2-[4-[[4-[4-(3-methyl-2,6-dioxo-3-piperidyl)phenyl]-1-piperidyl]methyl]cyclohexyl]imidazo[1,2-a]pyridine-6-carboxamide] and `CC(C)Oc1cc2nc([C@H]3CC[C@H](CN4CCC(c5ccc(C6(F)CCC(=O)NC6=O)cc5)CC4)CC3)cn2cc1C(=O)Nc1cccc(C(F)F)n1` (stereo partly drawn) [Example 45, N-[6-(difluoromethyl)-2-pyridyl]-2-[4-[[4-[4-(3-fluoro-2,6-dioxo-3-piperidyl)phenyl]-1-piperidyl]methyl]cyclohexyl]-7-isopropoxy-imidazo[1,2-a]pyridine-6-carboxamide] fall in the same range of DC50: 100 to 500 nM for the first, 100 to 500 nM for the second.

Compared with `CC(C)Oc1cc2nc([C@H]3CC[C@H](CN(C)C4CCN(c5ccc(C6CCC(=O)NC6=O)cc5)CC4(F)F)CC3)cn2cc1C(=O)Nc1cccc(C(F)F)n1` (stereo partly drawn) [Example 42, N-[6-(difluoromethyl)-2-pyridyl]-2-[4-[[[1-[4-(2,6-dioxo-3-piperidyl)phenyl]-3,3-difluoro-4-piperidyl]-methyl-amino]methyl]cyclohexyl]-7-isopropoxy-imidazo[1,2-a]pyridine-6-carboxamide], `Cc1cn(C2CCC(=O)NC2=O)c2ccc(C3CCN(C[C@H]4CC[C@H](c5cn6cc(C(=O)Nc7cccc(C(F)F)n7)c(OC(C)C)cc6n5)CC4)CC3)cc12` (stereo partly drawn) [Example 44, N-[6-(difluoromethyl)-2-pyridyl]-2-[4-[[4-[1-(2,6-dioxo-3-piperidyl)-3-methyl-indol-5-yl]-1-piperidyl]methyl]cyclohexyl]-7-isopropoxy-imidazo[1,2-a]pyridine-6-carboxamide] is lower in DC50: 100 to 500 nM for the first, 10 to 100 nM for the second.

First: CC(C)Oc1cc2nc([C@H]3CC[C@H](CN(C)C4CCN(Cc5ccc6c(c5)n(C)c(=O)n6C5CCC(=O)NC5=O)CC4)CC3)cn2cc1C(=O)Nc1cccc(C(F)F)n1 (stereo partly drawn) [Example 43, N-[6-(difluoromethyl)-2-pyridyl]-2-[4-[[[1-[[1-(2,6-dioxo-3-piperidyl)-3-methyl-2-oxo-benzimidazol-5-yl]methyl]-4-piperidyl]-methyl-amino]methyl]cyclohexyl]-7-isopropoxy-imidazo[1,2-a]pyridine-6-carboxamide]
Second: Cc1cnc2c(NC(=O)c3cn4cc([C@H]5CC[C@H](CN6CCC(c7ccc8c(c7)n(C)c(=O)n8C7CCC(=O)NC7=O)CC6)CC5)nc4cc3OC(C)C)cnn2c1 (stereo partly drawn) [Example 51, 2-[4-[[4-[1-(2,6-dioxo-3-piperidyl)-3-methyl-2-oxo-benzimidazol-5-yl]-1-piperidyl]methyl]cyclohexyl]-7-isopropoxy-N-(6-methylpyrazolo[1,5-a]pyrimidin-3-yl)imidazo[1,2-a]pyridine-6-carboxamide]
The DC50 of the first is higher: 10 to 100 nM for the first, < 10 nM for the second.

First: CC(C)Oc1cc2nc([C@H]3CC[C@H](CN4CC5(CCCN5Cc5ccc(OC6CCC(=O)NC6=O)cc5)C4)CC3)cn2cc1C(=O)Nc1cccc(C(F)F)n1 (stereo partly drawn) [Example 46, N-[6-(difluoromethyl)-2-pyridyl]-2-[4-[[5-[[4-[(2,6-dioxo-3-piperidyl)oxy]phenyl]methyl]-2,5-diazaspiro[3.4]octan-2-yl]methyl]cyclohexyl]-7-isopropoxy-imidazo[1,2-a]pyridine-6-carboxamide]
Second: CC(C)Oc1cc2nn(C3CCN(C(=O)CN4CCC(c5ccc(C6CCC(=O)NC6=O)cc5)CC4)CC3)cc2cc1C(=O)Nc1cccc(C(F)F)n1 (stereo not drawn) [Example 62, N-[6-(difluoromethyl)-2-pyridyl]-2-[1-[2-[4-[4-(2,6-dioxo-3-piperidyl)phenyl]-1-piperidyl]acetyl]-4-piperidyl]-6-isopropoxy-indazole-5-carboxamide]
The DC50 of the first is higher: 10 to 100 nM for the first, < 10 nM for the second.

Compared with `Cc1cnc2c(NC(=O)c3cn4cc([C@H]5CC[C@H](CN6CCC(c7cc(F)c(C8CCC(=O)NC8=O)cc7F)C(F)(F)C6)CC5)nc4cc3OC(C)C)cnn2c1` (stereo partly drawn) [Example 54, 2-[4-[[4-[4-(2,6-dioxo-3-piperidyl)-2,5-difluoro-phenyl]-3,3-difluoro-1-piperidyl]methyl]cyclohexyl]-7-isopropoxy-N-(6-methylpyrazolo[1,5-a]pyrimidin-3-yl)imidazo[1,2-a]pyridine-6-carboxamide], `CC(C)Oc1cc2nn(C3CCN(C(=O)CC4(O)CCN(c5cc(F)c(C6CCC(=O)NC6=O)cc5F)CC4)CC3)cc2cc1C(=O)Nc1cnn2cccnc12` (stereo not drawn) [Example 57, 2-(1-(2-(1-(4-(2,6-dioxopiperidin-3-yl)-2,5-difluorophenyl)-4-hydroxypiperidin-4-yl)acetyl)piperidin-4-yl)-6-isopropoxy-N-(pyrazolo[1,5-a]pyrimidin-3-yl)-2H-indazole-5-carboxamide] is lower in DC50: 100 to 500 nM for the first, < 10 nM for the second.

First: CC(C)Oc1cc2nn(C3CCN(C(=O)CN4CCC(c5ccc(C6CCC(=O)NC6=O)cc5)CC4)CC3)cc2cc1C(=O)Nc1cnn2cccnc12 (stereo not drawn) [Example 56, 2-(1-(2-(4-(4-(2,6-dioxopiperidin-3-yl)phenyl)piperidin-1-yl)acetyl)piperidin-4-yl)-6-isopropoxy-N-(pyrazolo[1,5-a]pyrimidin-3-yl)-2H-indazole-5-carboxamide]
Second: CC(C)Oc1cc2nn(C3CCN(C(=O)CN4CCC(c5ccc(C6CCC(=O)NC6=O)cc5F)CC4)CC3)cc2cc1C(=O)Nc1cccc(C(F)F)n1 (stereo not drawn) [Example 63, N-(6-(difluoromethyl)pyridin-2-yl)-2-(1-(2-(4-(4-(2,6-dioxopiperidin-3-yl)-2-fluorophenyl)piperidin-1-yl)acetyl)piperidin-4-yl)-6-isopropoxy-2H-indazole-5-carboxamide]
The DC50 of the first is lower: < 10 nM for the first, 10 to 100 nM for the second.

`CC(C)Oc1cc2nn(C3CCN(C(=O)CC4(O)CCN(c5ccc(NC6CCC(=O)NC6=O)cc5)CC4)CC3)cc2cc1C(=O)Nc1cccc(C(F)(F)F)n1` (stereo not drawn) [Example 58, 2-[1-[2-[1-[4-[(2,6-dioxo-3-piperidyl)amino]phenyl]-4-hydroxy-4-piperidyl]acetyl]-4-piperidyl]-6-isopropoxy-N-[6-(trifluoromethyl)-2-pyridyl]indazole-5-carboxamide] and `CC(C)Oc1cc2nn(C3CCN(C(=O)CC4(O)CCN(c5ccc(NC6CCC(=O)NC6=O)cc5)CC4)CC3)cc2cc1C(=O)Nc1cccc(C(F)F)n1` (stereo not drawn) [Example 65, N-(6-(difluoromethyl)pyridin-2-yl)-2-(1-(2-(1-(4-((2,6-dioxopiperidin-3-yl)amino)phenyl)-4-hydroxypiperidin-4-yl)acetyl)piperidin-4-yl)-6-isopropoxy-2H-indazole-5-carboxamide] fall in the same range of DC50: 10 to 100 nM for the first, 10 to 100 nM for the second.

First: CC(C)Oc1cc2nn(C3CCN(C(=O)CC4(O)CCN(c5ccc(NC6CCC(=O)NC6=O)cc5F)CC4)CC3)cc2cc1C(=O)Nc1cccc(C(F)(F)F)n1 (stereo not drawn) [Example 59, 2-[1-[2-[1-[4-[(2,6-dioxo-3-piperidyl)amino]-2-fluoro-phenyl]-4-hydroxy-4-piperidyl]acetyl]-4-piperidyl]-6-isopropoxy-N-[6-(trifluoromethyl)-2-pyridyl]indazole-5-carboxamide]
Second: CC(C)Oc1cc2nn(C3CCN(C(=O)CN4CCC(c5ccc(NC6CCC(=O)NC6=O)cc5F)CC4)CC3)cc2cc1C(=O)Nc1cccc(C(F)(F)F)n1 (stereo not drawn) [Example 61, 2-[1-[2-[4-[4-[(2,6-dioxo-3-piperidyl)amino]-2-fluoro-phenyl]-1-piperidyl]acetyl]-4-piperidyl]-6-isopropoxy-N-[6-(trifluoromethyl)-2-pyridyl]indazole-5-carboxamide]
The DC50 of the first is lower: 10 to 100 nM for the first, 100 to 500 nM for the second.

First: CC(C)Oc1cc2nn(C3CCN(C(=O)CN4CCC(c5ccc(NC6CCC(=O)NC6=O)cc5)CC4)CC3)cc2cc1C(=O)Nc1cccc(C(F)(F)F)n1 (stereo not drawn) [Example 60, 2-(1-(2-(4-(4-((2,6-dioxopiperidin-3-yl)amino)phenyl)piperidin-1-yl)acetyl)piperidin-4-yl)-6-isopropoxy-N-(6-(trifluoromethyl)pyridin-2-yl)-2H-indazole-5-carboxamide]
Second: CC(C)Oc1cc2nn(C3CCN(C(=O)CN4CCC(c5ccc(NC6CCC(=O)NC6=O)cc5F)CC4)CC3)cc2cc1C(=O)Nc1cccc(C(F)F)n1 (stereo not drawn) [Example 64, N-(6-(difluoromethyl)pyridin-2-yl)-2-(1-(2-(4-(4-((2,6-dioxopiperidin-3-yl)amino)-2-fluorophenyl)piperidin-1-yl)acetyl)piperidin-4-yl)-6-isopropoxy-2H-indazole-5-carboxamide]
The DC50 of the first is lower: 100 to 500 nM for the first, 500 to 1000 nM for the second.
